Reference: ChEMBL document CHEMBL1136317, “A general synthesis of 1-aryl carbamoyl-2-alkyl-4-aryl substituted semicarbazides as nonbasic factor Xa inhibitors” (Bioorg Med Chem Lett, 2003)
pIC50: −log10 of the molar value.

Molecular target: Coagulation factor X (Homo sapiens, UniProt P00742)
Assay: Inhibitory activity against human Coagulation factor X in a purified enzyme system

Chain of Coagulation factor X (P00742 41-179 limits assumed): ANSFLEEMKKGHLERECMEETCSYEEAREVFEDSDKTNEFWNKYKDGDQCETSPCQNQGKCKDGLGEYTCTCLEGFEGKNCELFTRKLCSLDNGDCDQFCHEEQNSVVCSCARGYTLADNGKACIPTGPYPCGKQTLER
Chain of Coagulation factor X (P00742 235-488 limits assumed): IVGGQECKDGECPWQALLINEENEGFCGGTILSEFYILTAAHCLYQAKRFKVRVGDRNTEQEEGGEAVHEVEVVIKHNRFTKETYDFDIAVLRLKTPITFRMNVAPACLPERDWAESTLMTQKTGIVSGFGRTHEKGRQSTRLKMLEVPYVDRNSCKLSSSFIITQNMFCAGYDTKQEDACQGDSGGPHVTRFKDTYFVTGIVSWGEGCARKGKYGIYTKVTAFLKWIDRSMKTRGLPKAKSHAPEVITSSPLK

## CC(NC(=O)Nc1ccc(Cl)cc1)C(=O)Nc1ccc(N2CCOCC2=O)cc1 (single isomer, unassigned)
  pIC50: 7.11

## CCC(NC(=O)Nc1ccc(Cl)cc1)C(=O)Nc1ccc(N2CCOCC2=O)cc1 (single isomer, unassigned)
  pIC50: 7.77
